The values below are quoted from earlier work in patent publication US6410548B1, “Spiropiperidine derivatives as melanocortin receptor agonists” (Merck & Co., Inc., priority 1998, dated 2002).

Series [1] deals with rodents. Conditions: injected ICV; feeding models NPY, ob/ob, agouti, fasted.
Series [2] has as its system normal male volunteers. Conditions: intramuscular, 0.005-0.03 mg/kg, three normal male volunteers.
For series [3], the system named is non-organic impotent patients. The settings on record: intramuscular, 0.025 mg/kg and 0.1 mg/kg, 10 non-organic impotent patients.

For SHU-9119, the “effect on food intake” value in series [1] is “reverses this effect and can induce hyperphagia”.

Consider melanotan-II [MT-II], for which the “period of intermittent non-painful penile erections after dosing” value in series [2] was 1 to 5 h. For the same substance, in series [3], the “onset of transient erections” value was 50 to 180 min and the “responders (transient erections)” value is 8. In series [1], the “effect on food intake” value is recorded as “reduces food intake”.
